The results in this text go back to patent US11040035B2, “3-oxo-2,6-diphenyl-2,3-dihydropyridazine-4-carboxamides” (BAYER PHARMA AKTIENGESELLSCHAFT, priority 2016, dated 2021).

Broadly, the IC50 is the point on the concentration scale where inhibition reaches its midpoint.

The target in series [1] is T1, AHR (Homo sapiens, UniProt P35869).
T1 sequence (P35869 11-848): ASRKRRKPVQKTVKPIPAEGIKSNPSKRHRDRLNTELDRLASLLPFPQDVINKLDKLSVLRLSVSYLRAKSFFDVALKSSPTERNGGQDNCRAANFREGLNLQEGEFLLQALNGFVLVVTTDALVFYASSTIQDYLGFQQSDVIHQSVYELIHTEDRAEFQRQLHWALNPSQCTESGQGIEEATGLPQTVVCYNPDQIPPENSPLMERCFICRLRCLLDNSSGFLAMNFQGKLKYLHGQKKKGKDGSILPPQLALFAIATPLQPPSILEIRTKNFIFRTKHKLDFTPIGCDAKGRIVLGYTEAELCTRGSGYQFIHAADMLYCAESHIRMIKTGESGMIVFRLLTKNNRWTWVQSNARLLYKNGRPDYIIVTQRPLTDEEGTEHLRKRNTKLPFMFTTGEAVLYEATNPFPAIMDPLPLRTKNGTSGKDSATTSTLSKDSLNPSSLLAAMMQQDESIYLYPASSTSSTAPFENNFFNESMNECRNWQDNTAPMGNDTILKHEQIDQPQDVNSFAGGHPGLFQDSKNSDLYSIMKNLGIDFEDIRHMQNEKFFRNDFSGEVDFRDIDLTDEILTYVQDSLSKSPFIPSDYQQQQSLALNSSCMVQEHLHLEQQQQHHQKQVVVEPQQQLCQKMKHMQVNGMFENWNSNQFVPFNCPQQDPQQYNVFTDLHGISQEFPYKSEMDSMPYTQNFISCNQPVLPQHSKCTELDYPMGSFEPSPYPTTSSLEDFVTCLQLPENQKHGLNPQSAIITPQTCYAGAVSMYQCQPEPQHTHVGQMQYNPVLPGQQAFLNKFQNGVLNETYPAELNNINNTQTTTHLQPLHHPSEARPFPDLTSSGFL
Put plainly: In vitro assay 2: agonism in human cell line (transactivation assay).

Series [2] has as its target T1, AHR. In words: In vitro assay 1: antagonism in human cell line (transactivation assay, kynurenic acid prestimulated).
Setting [3] is: Assay 2: AHR-luc Hum Agonism IC50 [M], no kynurenic acid, 20 hours, firefly luciferase.
[4] abbreviates: Assay 1: AHR-luc Hum Antagonism IC50 [M], 150 μM kynurenic acid, 20 hours, firefly luciferase.
Setting [5] is: read-out: Assay 2: AHR-luc Hum Agonism IC50, no kynurenic acid, 20 hours, firefly luciferase.

Turning to `O=C(N[C@H](CO)C1CCCC1)c1cc(-c2ccc(Cl)cc2)nn(-c2cccc(F)c2)c1=O` [Example 157, 6-(4-Chlorophenyl)-N-[(1S)-1-cyclopentyl-2-hydroxyethyl]-2-(3-fluorophenyl)-3-oxo-2,3-dihydropyridazine-4-carboxamide], the IC50 was over 2e-05 M in series [1] (setting [3]) and 2.22e-07 M in series [2] (setting [4]).
Regarding `CC(O)C(NC(=O)c1cc(-c2ccc(Cl)cc2)nn(-c2cccc(F)c2)c1=O)C(F)(F)F` (single isomer, unassigned) [Example 199, Isomer no. 2 of 6-(4-chlorophenyl)-2-(3-fluorophenyl)-3-oxo-N-(1,1,1-trifluoro-3-hydroxybutan-2-yl)-2,3-dihydropyridazine-4-carboxamide], the IC50 in series [1] (setting [5]) is over 2e-05 M; in series [2] (setting [4]) it was 5.84e-07 M.
Regarding `O=C(NC(CO)C1CCOC1)c1cc(-c2ccc(Cl)c(F)c2)nn(-c2cccc(F)c2)c1=O` (single isomer, unassigned) [Example 292, 6-(4-Chloro-3-fluorophenyl)-2-(3-fluorophenyl)-N-[2-hydroxy-1-(tetrahydrofuran-3-yl)ethyl]-3-oxo-2,3-dihydropyridazine-4-carboxamide], the IC50 was over 2e-05 M in series [1] (setting [3]) and 3.09e-07 M in series [2] (setting [4]).
The like results for `CC(CCO)NC(=O)c1cc(-c2ccc(Cl)cc2)nn(-c2cccc(F)c2)c1=O` (single isomer, unassigned; (+)) [Example 207, (+)-6-(4-Chlorophenyl)-2-(3-fluorophenyl)-N-(4-hydroxybutan-2-yl)-3-oxo-2,3-dihydropyridazine-4-carboxamide] were, in that order, over 2e-05 M and 6.29e-08 M.
The matching figures for `CC(O)C(C)NC(=O)c1cc(-c2ccc(OC(F)F)cc2)nn(-c2cccc(F)c2)c1=O` (single isomer, unassigned) [Example 141, 6-[4-(Difluoromethoxy)phenyl]-2-(3-fluorophenyl)-N-(3-hydroxybutan-2-yl)-3-oxo-2,3-dihydropyridazine-4-carboxamide]: over 2e-05 M and 7.81e-08 M.
On to `COCC(O)CNC(=O)c1cc(-c2ccc(Cl)cc2)nn(-c2cccc(F)c2)c1=O` (single isomer, unassigned) [Example 33, 6-(4-Chlorophenyl)-2-(3-fluorophenyl)-N-(2-hydroxy-3-methoxypropyl)-3-oxo-2,3-dihydropyridazine-4-carboxamide], for which the IC50 in series [1] (setting [5]) was over 2e-05 M; in series [2] (setting [4]), 2.11e-07 M.
As for `O=C(NC1(CO)CCCC1)c1cc(-c2ccc(Cl)cc2)nn(-c2cccc(F)c2)c1=O` [Example 214, 6-(4-Chlorophenyl)-2-(3-fluorophenyl)-N-[1-(hydroxymethyl)cyclopentyl]-3-oxo-2,3-dihydropyridazine-4-carboxamide], the IC50 was over 2e-05 M in series [1] (setting [3]) and 8.32e-08 M in series [2] (setting [4]).
Consider “2-(3-Fluorophenyl)-N-{(2-hydroxy-1-[tetrahydrofuran-3-yl]ethyl}-6-(4-methoxyphenyl)-3-oxo-2,3-dihydropyridazine-4-carboxamide [Example 158]”, for which the IC50 was over 2e-05 M in series [1] (setting [5]) and 2.75e-07 M in series [2] (read-out: Assay 1: AHR-luc Hum Antagonism IC50, 150 μM kynurenic acid, 20 hours, firefly luciferase).
As for `C[C@H](O)[C@H](CO)NC(=O)c1cc(-c2ccc(Cl)cc2)nn(-c2cccc(F)c2)c1=O` [Example 132, 6-(4-Chlorophenyl)-N-[(2S,3S)-1,3-dihydroxybutan-2-yl]-2-(3-fluorophenyl)-3-oxo-2,3-dihydropyridazine-4-carboxamide], the IC50 in series [1] (setting [3]) was over 2e-05 M; in series [2] (setting [4]) it was 1.36e-07 M.
The like results for `C[C@H](NC(=O)c1cc(-c2ccc(C(F)(F)F)cc2)nn(-c2cccc(F)c2)c1=O)C(C)(C)O` [Example 391, 2-(3-fluorophenyl)-N-[(2S)-3-hydroxy-3-methylbutan-2-yl]-3-oxo-6-[4-(trifluoromethyl)phenyl]-2,3-dihydropyridazine-4-carboxamide] were, in that order, over 2e-05 M and 1e-08 M.
In the case of `O=C(NC(CO)C1CC1)c1cc(-c2ccc(Cl)cc2)nn(-c2cccc(F)c2)c1=O` (single isomer, unassigned; (+)) [Example 195, (+)-6-(4-Chlorophenyl)-N-(1-cyclopropyl-2-hydroxyethyl)-2-(3-fluorophenyl)-3-oxo-2,3-dihydropyridazine-4-carboxamide], the values for the IC50 in series [1] (setting [5]) and in series [2] (setting [4]) were over 2e-05 M and 2.5e-07 M, respectively.
`O=C(NC(CO)CO)c1cc(-c2ccc(Cl)cc2)nn(-c2cccc(F)c2)c1=O` [Example 228, 6-(4-Chlorophenyl)-N-(1,3-dihydroxypropan-2-yl)-2-(3-fluorophenyl)-3-oxo-2,3-dihydropyridazine-4-carboxamide]: the IC50 is over 2e-05 M in series [1] (setting [3]) and 3.35e-07 M in series [2] (setting [4]).
With `O=C(NCC1(O)CCOCC1)c1cc(-c2ccc(Cl)cc2)nn(-c2cccc(F)c2)c1=O` [Example 325, 6-(4-chlorophenyl)-2-(3-fluorophenyl)-N-[(4-hydroxytetrahydro-2H-pyran-4-yl)methyl]-3-oxo-2,3-dihydropyridazine-4-carboxamide], the figures for the IC50 in series [1] (setting [3]) and in series [2] (setting [4]) were over 2e-05 M and 9.65e-08 M, respectively.
For `O=C(NC(CO)C1CCOC1)c1cc(-c2ccc(Cl)c(F)c2)nn(-c2cccc(F)c2)c1=O` (single isomer, unassigned) [Example 294, 6-(4-Chloro-3-fluorophenyl)-2-(3-fluorophenyl)-N-[2-hydroxy-1-(tetrahydrofuran-3-yl)ethyl]-3-oxo-2,3-dihydropyridazine-4-carboxamide], the IC50 in series [1] (setting [5]) was over 2e-05 M; in series [2] (setting [4]), 6.17e-07 M.
Regarding `O=C(NCC(O)C1CCCC1)c1cc(-c2ccc(Cl)cc2)nn(-c2cccc(F)c2)c1=O` (racemic) [Example 232, 6-(4-Chlorophenyl)-N-[(2RS)-2-cyclopentyl-2-hydroxyethyl]-2-(3-fluorophenyl)-3-oxo-2,3-dihydropyridazine-4-carboxamide], the IC50 in series [1] (setting [3]) is over 2e-05 M; in series [2] (setting [4]) it was 1.19e-07 M.
The like results for `CC(C)(O)CNC(=O)c1cc(-c2ccc(Cl)cc2)nn(-c2cccc(F)c2)c1=O` [Example 188, 6-(4-Chlorophenyl)-2-(3-fluorophenyl)-N-(2-hydroxy-2-methylpropyl)-3-oxo-2,3-dihydropyridazine-4-carboxamide] were, in that order, over 2e-05 M and 7.88e-08 M.
The matching figures for `CC(O)C(C)NC(=O)c1cc(-c2ccc(OC(F)(F)F)cc2)nn(-c2cccc(F)c2)c1=O` (single isomer, unassigned) [Example 180, 2-(3-Fluorophenyl)-N-(3-hydroxybutan-2-yl)-3-oxo-6-[4-(trifluoromethoxy)phenyl]-2,3-dihydropyridazine-4-carboxamide]: over 2e-05 M and 1.24e-07 M.
Consider `O=C(NC(CO)C1CC1)c1cc(-c2ccc(Cl)cc2)nn(-c2cccc(F)c2)c1=O` (racemic) [Example 193, 6-(4-Chlorophenyl)-N-[(1RS)-1-cyclopropyl-2-hydroxyethyl]-2-(3-fluorophenyl)-3-oxo-2,3-dihydropyridazine-4-carboxamide], for which the IC50 was over 2e-05 M in series [1] (setting [3]) and 2.52e-08 M in series [2] (setting [4]).
As to `O=C(NCC(O)C(F)(F)F)c1cc(-c2ccc(Cl)cc2)nn(-c2ccccc2)c1=O` (centres unmarked) [Example 76, 6-(4-chlorophenyl)-3-oxo-2-phenyl-N-(3,3,3-trifluoro-2-hydroxypropyl)-2,3-dihydropyridazine-4-carboxamide], the IC50 was over 2e-05 M in series [1] (setting [3]) and 9.37e-08 M in series [2] (setting [4]).
The like results for `CC(C)(O)C(NC(=O)c1cc(-c2ccc(Cl)cc2)nn(-c2cccc(F)c2)c1=O)C(F)(F)F` (single isomer, unassigned) [Example 278, 6-(4-Chlorophenyl)-2-(3-fluorophenyl)-3-oxo-N-(1,1,1-trifluoro-3-hydroxy-3-methylbutan-2-yl)-2,3-dihydropyridazine-4-carboxamide] were, in that order, over 2e-05 M and 2.05e-07 M.
As for `O=C(NC(CO)C1CCOC1)c1cc(-c2ccc(OC(F)F)cc2)nn(-c2cccc(F)c2)c1=O` (single isomer, unassigned) [Example 148, 6-[4-(Difluoromethoxy)phenyl]-2-(3-fluorophenyl)-N-{(2-hydroxy-1-tetrahydrofuran-3-yl)ethyl}-3-oxo-2,3-dihydropyridazine-4-carboxamide], the IC50 in series [1] (setting [5]) is over 2e-05 M; in series [2] (setting [4]), 5.33e-07 M.
For `CC(C)(O)CCNC(=O)c1cc(-c2ccc(Cl)cc2)nn(-c2cccc(F)c2)c1=O` [Example 321, 6-(4-chlorophenyl)-2-(3-fluorophenyl)-N-(3-hydroxy-3-methylbutyl)-3-oxo-2,3-dihydropyridazine-4-carboxamide], the half-inhibitory concentration (IC50) in series [1] (setting [3]) was over 2e-05 M; in series [2] (setting [4]), 2.64e-07 M.
